Active and inactive are the calls of the source. How the calls were made is not given here.
System: CCRIS mutagenicity, Ames/micronucleus/aberration tests
Assay: CCRIS mutagenicity studies
[1] = Test System: AMES SALMONELLA TYPHIMURIUM, Strain/Indicator: TA98, Metabolic Activation: NONE, Method: PREINCUBATION
[2] = Test System: AMES SALMONELLA TYPHIMURIUM, Strain/Indicator: TA100, Metabolic Activation: NONE, Method: PREINCUBATION
[3] = Test System: AMES SALMONELLA TYPHIMURIUM, Strain/Indicator: TA1535, Metabolic Activation: NONE, Method: PREINCUBATION

Measured: mutagenic call

COC=O
inactive: Test System: AMES SALMONELLA TYPHIMURIUM, Strain/Indicator: TA97, Metabolic Activation: HAMSTER, LIVER, S-9, AROCLOR 1254 (10 OR 30%), Method: PREINCUBATION inactive; negative | Test System: AMES SALMONELLA TYPHIMURIUM, Strain/Indicator: TA97, Metabolic Activation: NONE, Method: PREINCUBATION inactive; negative | Test System: AMES SALMONELLA TYPHIMURIUM, Strain/Indicator: TA97, Metabolic Activation: RAT, LIVER, S-9, AROCLOR 1254 (10 OR 30%), Method: PREINCUBATION inactive; negative | Test System: AMES SALMONELLA TYPHIMURIUM, Strain/Indicator: TA98, Metabolic Activation: HAMSTER, LIVER, S-9, AROCLOR 1254 (10 OR 30%), Method: PREINCUBATION inactive; negative | Test System: AMES SALMONELLA TYPHIMURIUM, Strain/Indicator: TA98, Metabolic Activation: NONE, Method: GAS EXPOSURE inactive; negative | [1] inactive; negative | Test System: AMES SALMONELLA TYPHIMURIUM, Strain/Indicator: TA98, Metabolic Activation: RAT, LIVER, S-9, AROCLOR 1254 (10 OR 30%), Method: PREINCUBATION inactive; negative | Test System: AMES SALMONELLA TYPHIMURIUM, Strain/Indicator: TA98, Metabolic Activation: RAT, LIVER, S-9, SODIUM PHENOBARBITAL AND 5,6-BENZOFLAVONE, Method: GAS EXPOSURE inactive; negative | Test System: AMES SALMONELLA TYPHIMURIUM, Strain/Indicator: TA100, Metabolic Activation: HAMSTER, LIVER, S-9, AROCLOR 1254 (10 OR 30%), Method: PREINCUBATION inactive; negative | Test System: AMES SALMONELLA TYPHIMURIUM, Strain/Indicator: TA100, Metabolic Activation: NONE, Method: GAS EXPOSURE inactive; negative | [2] inactive; negative | Test System: AMES SALMONELLA TYPHIMURIUM, Strain/Indicator: TA100, Metabolic Activation: RAT, LIVER, S-9, AROCLOR 1254 (10 OR 30%), Method: PREINCUBATION inactive; negative | Test System: AMES SALMONELLA TYPHIMURIUM, Strain/Indicator: TA100, Metabolic Activation: RAT, LIVER, S-9, SODIUM PHENOBARBITAL AND 5,6-BENZOFLAVONE, Method: GAS EXPOSURE inactive; negative | Test System: AMES SALMONELLA TYPHIMURIUM, Strain/Indicator: TA1535, Metabolic Activation: HAMSTER, LIVER, S-9, AROCLOR 1254 (10 OR 30%), Method: PREINCUBATION inactive; negative | Test System: AMES SALMONELLA TYPHIMURIUM, Strain/Indicator: TA1535, Metabolic Activation: NONE, Method: GAS EXPOSURE inactive; negative | [3] inactive; negative | Test System: AMES SALMONELLA TYPHIMURIUM, Strain/Indicator: TA1535, Metabolic Activation: RAT, LIVER, S-9, AROCLOR 1254 (10 OR 30%), Method: PREINCUBATION inactive; negative | Test System: AMES SALMONELLA TYPHIMURIUM, Strain/Indicator: TA1535, Metabolic Activation: RAT, LIVER, S-9, SODIUM PHENOBARBITAL AND 5,6-BENZOFLAVONE, Method: GAS EXPOSURE inactive; negative | Test System: AMES SALMONELLA TYPHIMURIUM, Strain/Indicator: TA1537, Metabolic Activation: NONE, Method: GAS EXPOSURE inactive; negative | Test System: AMES SALMONELLA TYPHIMURIUM, Strain/Indicator: TA1537, Metabolic Activation: RAT, LIVER, S-9, SODIUM PHENOBARBITAL AND 5,6-BENZOFLAVONE, Method: GAS EXPOSURE inactive; negative | Test System: E. COLI, Strain/Indicator: WP2UVRA, Metabolic Activation: NONE, Method: GAS EXPOSURE inactive; negative | Test System: E. COLI, Strain/Indicator: WP2UVRA, Metabolic Activation: RAT, LIVER, S-9, PHENOBARBITAL AND BETA--NAPHTHOFLAVONE, Method: GAS EXPOSURE inactive; negative

COC(=O)c1ccccc1C(=O)OC
inactive: End Point: IN VITRO CHROMOSOMAL ABERRATIONS, Test System: CHO-LB CELLS, Metabolic Activation: NONE inactive; negative | End Point: IN VITRO CHROMOSOMAL ABERRATIONS, Test System: CHO-LB CELLS, Metabolic Activation: RAT, LIVER, S-9, AROCLOR 1254 inactive; negative | Test System: AMES SALMONELLA TYPHIMURIUM, Strain/Indicator: TA98, Metabolic Activation: HAMSTER, LIVER, S-9, AROCLOR 1254 (10%), Method: PREINCUBATION inactive; negative | [1] inactive; negative | Test System: AMES SALMONELLA TYPHIMURIUM, Strain/Indicator: TA98, Metabolic Activation: RAT, LIVER, S-9, AROCLOR 1254 (10%), Method: PREINCUBATION inactive; negative | Test System: AMES SALMONELLA TYPHIMURIUM, Strain/Indicator: TA100, Metabolic Activation: HAMSTER, LIVER, S-9, AROCLOR 1254 (10%), Method: PREINCUBATION inactive; negative | [2] inactive; negative | Test System: AMES SALMONELLA TYPHIMURIUM, Strain/Indicator: TA100, Metabolic Activation: RAT, LIVER, S-9, AROCLOR 1254 (10%), Method: PREINCUBATION inactive; negative | Test System: AMES SALMONELLA TYPHIMURIUM, Strain/Indicator: TA100, Metabolic Activation: RAT, LIVER, S-9, AROCLOR 1254, Method: STANDARD PLATE inactive; negative | Test System: AMES SALMONELLA TYPHIMURIUM, Strain/Indicator: TA100, Metabolic Activation: S-9, Method: STANDARD PLATE inactive; negative | Test System: AMES SALMONELLA TYPHIMURIUM, Strain/Indicator: TA1535, Metabolic Activation: HAMSTER, LIVER, S-9, AROCLOR 1254 (10%), Method: PREINCUBATION inactive; negative | [3] inactive; negative | Test System: AMES SALMONELLA TYPHIMURIUM, Strain/Indicator: TA1535, Metabolic Activation: NONE, Method: STANDARD PLATE inactive; negative | Test System: AMES SALMONELLA TYPHIMURIUM, Strain/Indicator: TA1535, Metabolic Activation: RAT, LIVER, S-9, AROCLOR 1254 (10%), Method: PREINCUBATION inactive; negative | Test System: AMES SALMONELLA TYPHIMURIUM, Strain/Indicator: TA1535, Metabolic Activation: S-9, Method: STANDARD PLATE inactive; negative | Test System: AMES SALMONELLA TYPHIMURIUM, Strain/Indicator: TA1537, Metabolic Activation: HAMSTER, LIVER, S-9, AROCLOR 1254 (10%), Method: PREINCUBATION inactive; negative | Test System: AMES SALMONELLA TYPHIMURIUM, Strain/Indicator: TA1537, Metabolic Activation: NONE, Method: PREINCUBATION inactive; negative | Test System: AMES SALMONELLA TYPHIMURIUM, Strain/Indicator: TA1537, Metabolic Activation: RAT, LIVER, S-9, AROCLOR 1254 (10%), Method: PREINCUBATION inactive; negative | Test System: MOUSE LYMPHOMA, Strain/Indicator: L5178Y (TK+/TK-), Metabolic Activation: NONE, Method: SUSPENSION/PLATE inactive; negative
active: Test System: MOUSE LYMPHOMA, Strain/Indicator: L5178Y (TK+/TK-), Metabolic Activation: RAT LIVER S-9, Method: SUSPENSION/PLATE active; positive

O=Cc1ccc(COS(=O)(=O)O)o1
active: Test System: AMES SALMONELLA TYPHIMURIUM, Strain/Indicator: TA100, Metabolic Activation: NONE, Method: STANDARD PLATE active; positive | Test System: AMES SALMONELLA TYPHIMURIUM, Strain/Indicator: TA104, Metabolic Activation: NONE, Method: PREINCUBATION active; positive
inactive: Test System: AMES SALMONELLA TYPHIMURIUM, Strain/Indicator: TA98, Metabolic Activation: NONE, Method: STANDARD PLATE inactive; negative

CCCCCCC[CH2][Sn]([Cl])([Cl])[CH2]CCCCCCC
inactive: Test System: CHINESE HAMSTER V-79, Strain/Indicator: V-79/8-AZAGUANINE, Metabolic Activation: RAT HEPATOCYTES inactive; negative
active: Test System: CHINESE HAMSTER V-79, Strain/Indicator: V-79/8-AZAGUANINE, Metabolic Activation: NONE active; positive
